The record followed here is PubChem BioAssay (NCI).

Where “and” joins values, the source holds several entries; their conditions need not be identical. Identical values can stand only once.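 Test compounds were applied to cells in 96-well plates for 48 hours at 5 doses. Here, GI50 denotes the concentration required for 50% inhibition of growth. TGI marks complete inhibition of growth.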

Test systems include EKVX NSCLC; MDA-MB-435; SK-OV-3 ovarian; BT-549 breast; OVCAR-3 ovarian; HL-60(TB) leukemia; NCI/ADR-RES ovarian; UO-31 renal; OVCAR-8 ovarian; PC-3 prostate.
Holding throughout (experiment): NCI tumour cell line growth inhibition, 48 h

In the case of `COc1ccc(-c2nc3sccn3c2-c2ccnc(NCCCNS(=O)(=O)c3ccc(F)cc3)n2)cc1`, the GI50 in the assay on EKVX NSCLC was 3.12 µM; with MDA-MB-435, 2 µM; with SK-OV-3 ovarian, 3.93 µM; in the assay on BT-549 breast, 2.19 µM; in the assay on OVCAR-3 ovarian, 2.96 µM; with HL-60(TB) leukemia, 2.64 µM. In addition, the GI50 in the assay with NCI/ADR-RES ovarian is 1.98 µM; in the assay on UO-31 renal, 1.85 µM; in the assay on OVCAR-8 ovarian it was 1.57 µM; in the assay with PC-3 prostate it was 1.74 µM. Moreover, the TGI with EKVX NSCLC is above 100 µM; in the assay on MDA-MB-435 it was 6.51 µM; with SK-OV-3 ovarian it was above 100 µM; in the assay with BT-549 breast, 8.27 µM; with OVCAR-3 ovarian, 48.7 µM; with HL-60(TB) leukemia, 9.22 µM. Moreover, the TGI is 6.16 µM in the assay with NCI/ADR-RES ovarian, 5.17 µM with UO-31 renal, above 100 µM in the assay with OVCAR-8 ovarian and 6.75 µM in the assay with PC-3 prostate.
Regarding `COc1cc(-c2nn(-c3cccc(NC(=O)CCN4CCN(C)CC4)c3)cc2-c2ccncc2)ccc1Cl`, the GI50 was 2.13 µM with EKVX NSCLC; 0.283 µM in the assay with MDA-MB-435; 1.81 µM in the assay with SK-OV-3 ovarian; 7.26 µM with BT-549 breast; 0.363 µM in the assay with OVCAR-3 ovarian; 0.735 µM in the assay with HL-60(TB) leukemia. Moreover, the GI50 is 2.62 µM in the assay with NCI/ADR-RES ovarian, 1.38 µM in the assay on UO-31 renal, 2.77 µM with OVCAR-8 ovarian and 0.995 µM in the assay with PC-3 prostate. The TGI in the assay with EKVX NSCLC turned out to be 12.6 µM; with MDA-MB-435, 1.13 µM; in the assay with SK-OV-3 ovarian it was 7.34 µM; with BT-549 breast, 20.4 µM; in the assay with OVCAR-3 ovarian it was 1.75 µM; in the assay on HL-60(TB) leukemia, 2.79 µM. Besides, the TGI in the assay with NCI/ADR-RES ovarian stood at 8.76 µM; with UO-31 renal, 3.91 µM; in the assay with OVCAR-8 ovarian, 12 µM; in the assay with PC-3 prostate, 3.68 µM.
Take `O=c1[nH]c(SCc2ccccc2[N+](=O)[O-])nc2nc[nH]c12`: the TGI in the assay with EKVX NSCLC, with MDA-MB-435, with SK-OV-3 ovarian, with BT-549 breast, in the assay with OVCAR-3 ovarian and in the assay with HL-60(TB) leukemia was above 100 µM throughout. For the same compound, the TGI in the assay on NCI/ADR-RES ovarian, with UO-31 renal, with OVCAR-8 ovarian and with PC-3 prostate was above 100 µM each time. Also, the GI50 in the assay on UO-31 renal was > 100 µM and 35.1 µM.
Regarding `N#Cc1ccc(/C=C/C(=O)c2ccccc2)cc1`, the GI50 was 16.6 µM and 13.6 µM in the assay on EKVX NSCLC; 6.28 µM and 8.07 µM with MDA-MB-435; 17.3 µM and 20.2 µM in the assay with SK-OV-3 ovarian; 15.2 µM and 16.7 µM with BT-549 breast; 13.8 µM and 5.71 µM with OVCAR-3 ovarian; 9.07 µM and 3.2 µM with HL-60(TB) leukemia. In addition, the GI50 in the assay on NCI/ADR-RES ovarian was 22.8 µM and 24.2 µM; in the assay with UO-31 renal, 2.8 µM and 11.5 µM; in the assay with OVCAR-8 ovarian it was 9.07 µM and 11.2 µM; in the assay with PC-3 prostate it was 13 µM and 10.7 µM. For the same compound, the TGI with EKVX NSCLC was 34.9 µM and 27.4 µM; in the assay with MDA-MB-435 it was 18 µM and 21.8 µM; in the assay with SK-OV-3 ovarian, 33.2 µM and 44.9 µM; with BT-549 breast it was 29.3 µM and 30.5 µM; in the assay with OVCAR-3 ovarian, 26.6 µM and 13 µM; with HL-60(TB) leukemia it was 48.4 µM and > 33.1 µM. The TGI with NCI/ADR-RES ovarian is 54.8 µM and 69.8 µM; in the assay on UO-31 renal it was 7.98 µM and 23.9 µM; in the assay with OVCAR-8 ovarian, 22.2 µM and 27.5 µM; with PC-3 prostate, 31.4 µM and 26.6 µM.
For `COc1cc(/C=C/c2ccccn2)cc(OC)c1OC`, the TGI in the assay on EKVX NSCLC, with MDA-MB-435, with SK-OV-3 ovarian, in the assay on BT-549 breast, with OVCAR-3 ovarian and in the assay on HL-60(TB) leukemia was above 10 µM each time. Besides, the TGI in the assay with NCI/ADR-RES ovarian, in the assay with UO-31 renal, in the assay with OVCAR-8 ovarian and in the assay on PC-3 prostate was above 10 µM throughout.
`CNCCN(C)Cc1cn[nH]c1-c1ccc(OC2CC(OCCC3CCOCC3)C2)cc1` (centres undefined): the GI50 is above 77.7 µM in the assay with EKVX NSCLC; above 100 µM in the assay on MDA-MB-435; above 100 µM in the assay on SK-OV-3 ovarian; 54.2 µM in the assay on BT-549 breast; above 80 µM with OVCAR-3 ovarian; above 80.1 µM in the assay with HL-60(TB) leukemia. Also, the GI50 in the assay with NCI/ADR-RES ovarian was above 100 µM; with UO-31 renal, 28 µM; in the assay on OVCAR-8 ovarian, above 100 µM; with PC-3 prostate it was above 63.4 µM. In addition, the TGI in the assay with EKVX NSCLC, with MDA-MB-435, in the assay with SK-OV-3 ovarian, in the assay on BT-549 breast, in the assay on OVCAR-3 ovarian and with HL-60(TB) leukemia was above 100 µM throughout. For the same compound, the TGI with NCI/ADR-RES ovarian, in the assay with UO-31 renal, in the assay with OVCAR-8 ovarian and with PC-3 prostate was above 100 µM throughout.
Regarding `FC(F)(F)c1ccc(NCc2nc3ccccc3[nH]2)cc1`, the GI50 with EKVX NSCLC was 26.8 µM; with MDA-MB-435, 22.4 µM; with SK-OV-3 ovarian it was 45.5 µM; in the assay on BT-549 breast, 31.1 µM; in the assay on OVCAR-3 ovarian, 21.9 µM; with HL-60(TB) leukemia, 12.1 µM. For the same compound, the GI50 in the assay on NCI/ADR-RES ovarian was 21.9 µM; in the assay on UO-31 renal it was 30.4 µM; with OVCAR-8 ovarian, 27.5 µM; in the assay on PC-3 prostate, 18.8 µM. Besides, the TGI is above 100 µM with EKVX NSCLC; 74.6 µM in the assay with MDA-MB-435; above 100 µM in the assay on SK-OV-3 ovarian; 97.5 µM in the assay with BT-549 breast; 62.2 µM in the assay on OVCAR-3 ovarian; 38.5 µM in the assay with HL-60(TB) leukemia. The TGI with NCI/ADR-RES ovarian is 67.2 µM; in the assay on UO-31 renal it was above 100 µM; in the assay on OVCAR-8 ovarian it was above 100 µM; in the assay on PC-3 prostate it was 75.8 µM.
For the compound `CNCCNc1nc2ccccc2c2c(=O)c3cccc(C)c3sc12`, the GI50 in the assay on EKVX NSCLC was 2.73 µM; in the assay with MDA-MB-435 it was 1.05 µM; in the assay with BT-549 breast, 5.34 µM; in the assay on OVCAR-3 ovarian, 1.47 µM; with HL-60(TB) leukemia it was 1.06 µM; in the assay with NCI/ADR-RES ovarian, 1.76 µM. The GI50 in the assay with UO-31 renal is 0.79 µM; in the assay with OVCAR-8 ovarian, 1.94 µM; in the assay with PC-3 prostate, 1.55 µM. Moreover, the TGI in the assay with EKVX NSCLC came to 9.87 µM; with MDA-MB-435 it was 2.22 µM; in the assay with BT-549 breast it was 12.1 µM; in the assay on OVCAR-3 ovarian, 5.27 µM; in the assay on HL-60(TB) leukemia it was 2.2 µM; with NCI/ADR-RES ovarian, 7.35 µM. In addition, the values for the TGI with UO-31 renal, in the assay with OVCAR-8 ovarian and with PC-3 prostate were 7.12 µM, 7.65 µM and 8.7 µM, respectively.
